Laboratory results published in patent publication US20020137154A1, “Methods for improving cell growth and alcohol production during fermentation” (priority 2000, published 2002).

Tested on: Klebsiella oxytoca P2
Assay: Batch fermentation of Klebsiella oxytoca P2 in 1% CSL medium and xylose with acetaldehyde: ethanol production and cell growth
Type: cell-based
Conditions: for Ethanol Production Maximum / Ethanol Production Maximum % Control / Ethanol yield / Initial Growth (OD @ 24 h) % Control / Initial Growth (OD @ 24 h) OD / Maximum Cell Density % Control / Maximum Cell Density OD / Maximum Cell Density Time / Time to completion / Volumetric Productivity % Control (based on Avg) / Volumetric Productivity % Control (based on Max) / Volumetric Productivity Average / Volumetric Productivity Maximum: K. oxytoca P2, 1% CSL+xylose
Protocol: Two types of media were tested: 1% CSL and Luria broth (LB). Each contained 97 g of either xylose or glucose per liter. Luria Broth consists of, per liter: 10 g Difco® Tryptone, 5 g Difco® Yeast Extract and 5 g NaCl. The 1% CSL medium consists of Corn Steep Liquor (1% w/v) plus mineral salts (mineral salts per liter: 1 g of KH2PO4. 0.5 g of K2HPO4, 3.1 g of (NH4)2SO4, 0.4 g of MgCl2·6H2), and 20 mg FeCl3·6H2O).
Luria Broth was prepared by autoclaving a 2× nutrient stock containing, per liter: 20 g Difco® Tryptone, 10 g Difo® Yeast Extract, and 10 g NaCl. Sugars (xylose or glucose) were autoclaved separately. A 1% CSL medium was prepared as follows: Commercial Corn Steep Liquor (CSL; 50% dry weight/50% water) was diluted with tap water to make a 20X stock containing 100 g dry weight of Corn Steep Liquor/L and was adjusted to pH 7.2 with NaOH (50%). After sterilization by autoclaving, the 20X CSL stock was clarified by centrifugation at 5000×g for 10 minutes. Magnesium was added as a 100× stock solution (40 g/L MgCl2·6H2O). Iron was added as a 1000× stock solution made by dissolving 20 g FeCl3·6H2O in 175 mL of HCl and adjusting to 1 L with sterile water. Nitrogen, sulfur and phosphorus were added using a 20× stock solution containing the following (per liter): 20 g of KH2PO4, 10 g of K2HPO4 and 62 g of (NH4)2SO4. Stock solutions containing minerals were sterilized separately by autoclaving. Final media was prepared by adding 750 mL of water to 1 L bottle containing 100 g of xylose or glucose. This solution was autoclaved, and stock solutions were added to provide a 1× concentration, and the final volume adjusted to 1 L. This broth was further diluted by the addition of supplements (acetaldehyde stock or distilled water) during fermentation with a resulting sugar content of 97 g/L.
Inocula were grown in same media used for fermentation and were prepared as follows. Three colonies from a fresh plate were used to inoculate seed cultures: 250-mL flask containing 100 mL medium. These cultures were grown with agitation (120 rpm) for 12-16 hours at 35° C. to a final OD550nm of approximately 2.0-2.5. Cells were harvested by centrifugation at 5000×g for 5 minutes, and resuspended in fresh media to an OD550nm of 0.1. The resulting suspension was distributed into 500-mL beakers containing 345 ml each of fermentation medium. Acetaldehyde was added as indicated. Batch fermentations (35° C., 100 rpm) were maintained at pH 6.5 by the automatic addition of 2N KOH. Cell mass, ethanol, and base addition (2N KOH) were recorded during 96 hours of incubation.
Cell mass was estimated by measuring OD550nm using Baush & Lomb® Spectronic 70 spectrophotometer. […] Ethanol was measured by gas chromatography using a Varian® 3400 CX gas chromatograph with 1-propanol as an internal standard.
This example describes the effect of the addition of acetaldehyde to 1% CSL and xylose medium, which has been inoculated with ethanologenic, cells, i.e., Klebsiella oxytoca P2.
Maximum ethanol production is shown in grams/liter (g/L). The ethanol yield is shown in grams of ethanol/grams of added sugar. Maximum volumetric productivity is shown in grams of ethanol/(liter)(hour). The average productivity is calculated form the start of fermentation to the completion of fermentation in grams ethanol/(liter)(hour).
Acetaldehyde was added to the fermentation medium at five different concentrations and time points. Where only one acetaldehyde value is provided, this amount of acetaldehyde was added at the start of fermentation only (i.e., 0.25 g/L acetaldehyde or 0.5 g/L). Where two or three additions are indicated, the first volume was added at the start of fermentation and additional doses of the nutrient compound were added after 8 hours of fermentation or at 8-hour intervals.

[1] = 2 × 0.25 g/L (start, after 8 hours)
[2] = 3 × 0.25 g/L (start, then 8-hour intervals)
[3] = K. oxytoca P2, CSL and xylose, 0.5 g/L at the start

## CC=O [Acetaldehyde, acetaldehyde]
0.25 g/L at start
  Ethanol Production Maximum: 25.43 g/L
  Ethanol Production Maximum % Control: 107.35%
  Ethanol yield: 0.262 grams of ethanol/grams of added sugar
  Initial Growth (OD @ 24 h) % Control: 93.90%
  Initial Growth (OD @ 24 h) OD: 3.54 OD
  Maximum Cell Density % Control: 111.96%
  Maximum Cell Density OD: 5.68 OD
  Maximum Cell Density Time: 72.00 h
  Time to completion: >96 h
  Volumetric Productivity % Control (based on Avg): 107.35%
  Volumetric Productivity % Control (based on Max): 135.46%
  Volumetric Productivity Average: 0.265 grams ethanol/(liter)(hour)
  Volumetric Productivity Maximum: 0.47 grams of ethanol/(liter)(hour)
0.5 g/L at start
  Ethanol Production Maximum: 26.53 g/L
  Ethanol Production Maximum % Control: 111.98%
  Ethanol yield: 0.273 grams of ethanol/grams of added sugar
  Initial Growth (OD @ 24 h) % Control: 69.39%
  Initial Growth (OD @ 24 h) OD: 2.61 OD
  Maximum Cell Density % Control: 116.26%
  Maximum Cell Density OD: 5.89 OD
  Maximum Cell Density Time: 96.00 h
  Time to completion: >96 h
  Volumetric Productivity % Control (based on Avg): 111.98%
  Volumetric Productivity % Control (based on Max): 147.11%
  Volumetric Productivity Average: 0.276 grams ethanol/(liter)(hour)
  Volumetric Productivity Maximum: 0.51 grams of ethanol/(liter)(hour)
[1]
  Ethanol Production Maximum: 25.56 g/L
  Ethanol Production Maximum % Control: 107.88%
  Ethanol yield: 0.263 grams of ethanol/grams of added sugar
  Initial Growth (OD @ 24 h) % Control: 88.59%
  Initial Growth (OD @ 24 h) OD: 3.34 OD
  Maximum Cell Density % Control: 104.50%
  Maximum Cell Density OD: 5.30 OD
  Maximum Cell Density Time: 96.00 h
  Time to completion: >96 h
  Volumetric Productivity % Control (based on Avg): 107.88%
  Volumetric Productivity % Control (based on Max): 126.68%
  Volumetric Productivity Average: 0.266 grams ethanol/(liter)(hour)
  Volumetric Productivity Maximum: 0.44 grams of ethanol/(liter)(hour)
[2]
  Ethanol Production Maximum: 26.14 g/L
  Ethanol Production Maximum % Control: 110.32%
  Ethanol yield: 0.269 grams of ethanol/grams of added sugar
  Initial Growth (OD @ 24 h) % Control: 95.66%
  Initial Growth (OD @ 24 h) OD: 3.60 OD
  Maximum Cell Density % Control: 106.51%
  Maximum Cell Density OD: 5.40 OD
  Maximum Cell Density Time: 72.00 h
  Time to completion: >96 h
  Volumetric Productivity % Control (based on Avg): 110.32%
  Volumetric Productivity % Control (based on Max): 135.55%
  Volumetric Productivity Average: 0.272 grams ethanol/(liter)(hour)
  Volumetric Productivity Maximum: 0.47 grams of ethanol/(liter)(hour)
[3]
  ethanol production as compared to the control: highest amount of ethanol production
  initial growth and maximum cell density as compared to the control: increased initial growth and maximum cell density
